The values that follow come from PubChem BioAssay AID651919 (Sanford-Burnham Center for Chemical Genomics, 2012).

What is called IC50 is the concentration needed to halve the response being measured. A word on the pIC50: it is the negative decadic logarithm of the IC50, by convention in mol/L.

pIC50: −log10 of the molar value. “And” between values parts separate entries of the source, which are not always exact repeats. Identical values can stand only once. The source made the active and inactive calls.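 The calls were made as follows: active = CXCR6 IC50 below 5 µM, and the CXCR5 counter screen gives no IC50 under five times the CXCR6 IC50; inactive = the rest.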

For assay [1], the target named is C-X-C chemokine receptor type 6 (Homo sapiens) (UniProt O00574). Description: CXCR6 and CXCR5 receptor antagonist panel, profiling panel, selectivity assay for CXCR6 antagonist project, cell-based, CHO-K1 PathHunter beta-arrestin, luminescence, set 4 (AID 651919). The note with it: CHO-K1 PathHunter CXCR6 beta-arrestin, CXCR6, mean of runs.
C-X-C chemokine receptor type 6 (Homo sapiens), sequence (O00574 whole entry, looked up): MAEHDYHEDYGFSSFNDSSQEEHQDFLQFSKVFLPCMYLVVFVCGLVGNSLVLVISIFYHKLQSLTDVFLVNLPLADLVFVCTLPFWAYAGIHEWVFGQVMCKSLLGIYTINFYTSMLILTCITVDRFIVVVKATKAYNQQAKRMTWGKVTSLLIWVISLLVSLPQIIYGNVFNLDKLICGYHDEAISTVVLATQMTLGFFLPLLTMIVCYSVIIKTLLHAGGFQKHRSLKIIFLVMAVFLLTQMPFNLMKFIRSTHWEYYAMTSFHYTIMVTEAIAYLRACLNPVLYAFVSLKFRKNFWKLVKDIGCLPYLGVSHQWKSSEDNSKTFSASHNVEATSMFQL
Assay [2] deals with C-X-C chemokine receptor type 5 (Homo sapiens) (UniProt P32302). The description is as above. The following applies: CHO-K1 PathHunter CXCR5 beta-arrestin, CXCR5, mean of runs.

As for `COc1ccc(C(=O)NC2CC3CCCC(C2)N3CC(=O)Nc2ccc(C)cc2)cc1` (stereo not drawn), the IC50 in assay [1] and in assay [2] was > 79 µM (inactive) throughout.
With `COc1cc(C(=O)NC2CC3CCCC(C2)N3CC(=O)Nc2ccccc2)cc(OC)c1OC` (stereo not drawn), the pIC50 in assay [1] is 5.47 and 5.32. Moreover, the IC50 in assay [2] was > 79 µM (inactive).
For `COc1ccc(CN2C3CCCC2CC(NC(=O)c2cc(OC)c(OC)c(OC)c2)C3)cc1` (stereo not drawn), the IC50 entry in assay [1] was “inactive”. Further, the IC50 in assay [2] was > 79 µM (inactive).
Turning to `COc1ccc(NC(=O)CN2C3CCCC2CC(NC(=O)c2cccc(OC)c2)C3)cc1` (stereo not drawn), the IC50 in assay [1] and in assay [2] was > 79 µM (inactive) each time.
With `COc1cc(C(=O)NC2CC3CCCC(C2)N3CC(=O)Nc2ccc(Cl)cc2)cc(OC)c1OC` (stereo not drawn), the negative-log IC50 (pIC50) in assay [1] was 5.83. The IC50 in assay [2] was > 79 µM (inactive).
`COc1cc(C(=O)NC2CC3CCCC(C2)N3CC(=O)Nc2ccc(C)cc2)cc(OC)c1OC` (stereo not drawn): the IC50 result in assay [1] is “inactive”. Besides, the IC50 in assay [2] is > 79 µM (inactive).
Regarding `COc1ccc(C(=O)NC2CC3CCCC(C2)N3CC(=O)Nc2ccc(Cl)cc2)cc1` (stereo not drawn), the IC50 in assay [1] and in assay [2] was > 79 µM (inactive) in each case.
As for `COc1ccc(NC(=O)CN2C3CCCC2CC(NC(=O)c2cc(OC)cc(OC)c2)C3)cc1` (stereo not drawn), the IC50 in assay [1] and in assay [2] was > 79 µM (inactive) throughout.
Take `COc1ccc(C(=O)NC2CC3CCCC(C2)N3CC(=O)Nc2ccc(F)cc2)cc1` (stereo not drawn): the IC50 in assay [1] and in assay [2] was > 79 µM (inactive) in each case.
As for `O=C(CN1C2CCCC1CC(NC(=O)c1ccc3c(c1)OCO3)C2)Nc1ccc(F)cc1` (stereo not drawn), the IC50 in assay [1] and in assay [2] was > 79 µM (inactive) throughout.
In the case of `COc1ccc(C(=O)NC2CC3CCCC(C2)N3CC(=O)Nc2ccc(F)cc2)cc1OC` (stereo not drawn), the IC50 in assay [1] and in assay [2] was > 79 µM (inactive) each time.
Consider `Cc1ccc(NC(=O)CN2C3CCCC2CC(NC(=O)c2ccc4c(c2)OCO4)C3)cc1` (stereo not drawn), for which the IC50 in assay [1] and in assay [2] was > 79 µM (inactive) each time.
As for `O=C(CN1C2CCCC1CC(NC(=O)c1ccccc1)C2)Nc1ccccc1` (stereo not drawn), the IC50 in assay [1] and in assay [2] was > 79 µM (inactive) each time.
For `COc1cc(OC)cc(C(=O)NC2CC3CCCC(C2)N3CC(=O)Nc2ccc(C)cc2)c1` (stereo not drawn), the IC50 in assay [1] and in assay [2] was > 79 µM (inactive) throughout.
For the molecule `O=C(CN1C2CCCC1CC(NC(=O)c1ccc3c(c1)OCO3)C2)Nc1ccccc1` (stereo not drawn), the IC50 in assay [1] and in assay [2] was > 79 µM (inactive) throughout.
Consider `COc1ccc(NC(=O)CN2C3CCCC2CC(NC(=O)c2ccc4c(c2)OCO4)C3)cc1` (stereo not drawn), for which the IC50 in assay [1] and in assay [2] was > 79 µM (inactive) throughout.
In the case of `COc1ccc(NC(=O)CN2C3CCCC2CC(NC(=O)c2ccc(OC)c(OC)c2)C3)cc1` (stereo not drawn), the IC50 in assay [1] and in assay [2] was > 79 µM (inactive) throughout.
As for `O=C(CN1C2CCCC1CC(NC(=O)c1ccc3c(c1)OCO3)C2)Nc1ccc(Cl)cc1` (stereo not drawn), the IC50 in assay [1] and in assay [2] was > 79 µM (inactive) each time.
For the molecule `COc1cc(OC)cc(C(=O)NC2CC3CCCC(C2)N3CC(=O)Nc2ccccc2)c1` (stereo not drawn), the IC50 in assay [1] was > 79 µM (inactive). The pIC50 in assay [2] is 4.90.
For the molecule `COc1ccc(NC(=O)CN2C3CCCC2CC(NC(=O)c2ccc(OC)cc2)C3)cc1` (stereo not drawn), the IC50 in assay [1] and in assay [2] was > 79 µM (inactive) each time.
Turning to `COc1ccc(C(=O)NC2CC3CCCC(C2)N3CC(=O)Nc2ccccc2)cc1` (stereo not drawn), the IC50 in assay [1] and in assay [2] was > 79 µM (inactive) in each case.
Regarding `COc1cc(C(=O)NC2CC3CCCC(C2)N3CC(=O)Nc2ccc(F)cc2)cc(OC)c1OC` (stereo not drawn), in assay [1], the IC50 entry was “inactive”. For the same molecule, in assay [2], the IC50 is > 79 µM (inactive).
On to `COc1cccc(C(=O)NC2CC3CCCC(C2)N3CC(=O)Nc2ccc(Cl)cc2)c1` (stereo not drawn), for which the IC50 in assay [1] and in assay [2] was > 79 µM (inactive) each time.
For the molecule `COc1ccccc1NC(=O)CN1C2CCCC1CC(NC(=O)c1cc(OC)c(OC)c(OC)c1)C2` (stereo not drawn), in assay [1], the pIC50 is 5.73. Also, the IC50 in assay [2] was > 79 µM (inactive).
Turning to `COc1cccc(C(=O)NC2CC3CCCC(C2)N3CC(=O)Nc2ccc(F)cc2)c1` (stereo not drawn), the IC50 in assay [1] and in assay [2] was > 79 µM (inactive) each time.
As to `COc1ccc(C(=O)NC2CC3CCCC(C2)N3CC(=O)Nc2ccc(Cl)cc2)cc1OC` (stereo not drawn), the IC50 in assay [1] and in assay [2] was > 79 µM (inactive) in each case.
As for `COc1cc(C(=O)NC2CC3CCCC(C2)N3CC(=O)Nc2ccccc2Cl)cc(OC)c1OC` (stereo not drawn), the negative-log IC50 (pIC50) in assay [1] is 6.45 and 6.86. The IC50 in assay [2] was > 79 µM (inactive).
Take `COc1cc(OC)cc(C(=O)NC2CC3CCCC(C2)N3CC(=O)Nc2ccc(F)cc2)c1` (stereo not drawn): the IC50 in assay [1] was > 79 µM (inactive). Further, the pIC50 in assay [2] was 4.36.
As for `COc1ccc(NC(=O)CN2C3CCCC2CC(NC(=O)c2cc(OC)c(OC)c(OC)c2)C3)cc1` (stereo not drawn), the IC50 entry in assay [1] was “inactive”. The IC50 in assay [2] is > 79 µM (inactive).
The like results for `COc1ccc(C(=O)NC2CC3CCCC(C2)N3CC(=O)Nc2ccc(C)cc2)cc1OC` (stereo not drawn) were, in that order, > 79 µM (inactive) and > 79 µM (inactive).
For `COc1cccc(C(=O)NC2CC3CCCC(C2)N3CC(=O)Nc2ccccc2)c1` (stereo not drawn), the IC50 in assay [1] and in assay [2] was > 79 µM (inactive) throughout.
Turning to `COc1ccc(C(=O)NC2CC3CCCC(C2)N3CC(=O)Nc2ccccc2)cc1OC` (stereo not drawn), the IC50 in assay [1] and in assay [2] was > 79 µM (inactive) throughout.
As to `COc1cccc(C(=O)NC2CC3CCCC(C2)N3CC(=O)Nc2ccc(C)cc2)c1` (stereo not drawn), the IC50 in assay [1] and in assay [2] was > 79 µM (inactive) throughout.
As to `COc1cc(OC)cc(C(=O)NC2CC3CCCC(C2)N3CC(=O)Nc2ccc(Cl)cc2)c1` (stereo not drawn), the IC50 in assay [1] and in assay [2] was > 79 µM (inactive) each time.
